Molecules are shown by their SMILES. Bounds are passed on as bounds.

Holding throughout (assay): Screen Quest Fluo-8 No Wash Calcium Assay (Bz-ATP evoked Ca2+ influx, FLIPR)
Holding throughout (assay type): cell-based

In experiment [1] the target is T1, P2X7 receptor (Rattus norvegicus, UniProt Q64663).
T1 construct: rP2X7 (IC50; nM); other: rP2X7; HEK-293 cells stably transfected with P2X7 receptor, Bz-ATP at EC80, Fluo-8 NW; potency
T1 sequence (Q64663 1-595): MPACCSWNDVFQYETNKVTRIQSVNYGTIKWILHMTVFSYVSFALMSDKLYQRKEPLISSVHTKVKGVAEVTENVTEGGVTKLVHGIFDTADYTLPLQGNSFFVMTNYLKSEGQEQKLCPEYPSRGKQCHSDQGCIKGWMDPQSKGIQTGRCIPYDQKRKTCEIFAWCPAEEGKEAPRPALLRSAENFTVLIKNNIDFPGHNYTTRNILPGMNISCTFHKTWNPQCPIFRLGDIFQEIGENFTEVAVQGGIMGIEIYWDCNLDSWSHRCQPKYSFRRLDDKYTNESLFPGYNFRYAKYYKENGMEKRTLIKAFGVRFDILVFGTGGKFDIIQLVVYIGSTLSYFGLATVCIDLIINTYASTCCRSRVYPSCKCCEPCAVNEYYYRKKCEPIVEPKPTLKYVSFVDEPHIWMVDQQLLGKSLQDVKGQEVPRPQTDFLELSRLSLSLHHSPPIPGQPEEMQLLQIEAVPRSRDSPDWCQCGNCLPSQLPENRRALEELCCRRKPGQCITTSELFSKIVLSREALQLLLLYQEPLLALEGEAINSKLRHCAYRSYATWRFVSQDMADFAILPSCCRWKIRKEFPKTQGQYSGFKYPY
To be noted: rP2X7; HEK-293 cells stably transfected with P2X7 receptor, Bz-ATP at EC80, Fluo-8 NW; potency ranges A-D. The method, then:
(§1) Extracellular binding of Bz-ATP to P2X7 receptor opens the channel and allows Ca2+ influx into the cells. […] Once inside the cell, the lipophilic blocking groups of Fluo-8 are cleaved by non-specific cell esterases, resulting in a negatively-charged fluorescent dye that stays inside cells. Its fluorescence increases upon binding to calcium.
(§2) HEK-293 cells stably transfected with P2X7 receptor were seeded overnight in growth medium at 10,000 to 20,000 cell/well in 384-well plate. 24 hours later, the medium was removed and the cells were pre-loaded at RT for 1 hour with 20 μL/w of Fluo-8 NW. Then 10 μL/w of tests compounds and reference antagonist A438079 at 3×-concentration were injected with the […] and the kinetic response over a period of five minutes was monitored. A second injection of 15 μL/w of 3× reference activator (Bz-ATP at EC80) was performed with the […] and the signal of the emitted fluorescence was recorded for additional three minutes. All the experiment was carried out in a Low Divalent Cation Assay Buffer (0.3 mM Ca^2+ and 0 mM Mg^2+). The effect of the test compounds was measured as percent inhibition vs the reference antagonist and IC50 values were calculated accordingly.

For experiment [2], the target named is T2, P2X7 receptor (Mus musculus, UniProt Q9Z1M0).
T2 construct: mP2X7 (IC50; nM); other: mP2X7; HEK-293 cells stably transfected with P2X7 receptor, Bz-ATP at EC80, Fluo-8 NW; potency
T2 sequence (Q9Z1M0 1-595): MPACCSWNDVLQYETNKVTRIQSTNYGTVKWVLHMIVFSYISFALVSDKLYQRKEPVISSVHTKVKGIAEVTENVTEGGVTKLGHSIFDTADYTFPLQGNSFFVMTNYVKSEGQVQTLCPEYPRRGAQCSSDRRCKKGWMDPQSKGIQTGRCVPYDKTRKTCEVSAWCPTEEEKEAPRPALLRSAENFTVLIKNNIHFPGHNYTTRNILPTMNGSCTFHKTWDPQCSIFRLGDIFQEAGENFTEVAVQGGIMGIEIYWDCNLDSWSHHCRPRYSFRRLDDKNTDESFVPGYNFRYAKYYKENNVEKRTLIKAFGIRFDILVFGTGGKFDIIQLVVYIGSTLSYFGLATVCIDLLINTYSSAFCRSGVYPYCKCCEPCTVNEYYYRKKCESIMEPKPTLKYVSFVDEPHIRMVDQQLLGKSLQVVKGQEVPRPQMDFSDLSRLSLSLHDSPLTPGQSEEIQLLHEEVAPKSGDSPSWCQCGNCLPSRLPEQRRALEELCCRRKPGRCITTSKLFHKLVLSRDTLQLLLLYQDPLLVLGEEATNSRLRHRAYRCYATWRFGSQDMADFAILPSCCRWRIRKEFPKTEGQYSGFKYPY
To be noted: mP2X7; HEK-293 cells stably transfected with P2X7 receptor, Bz-ATP at EC80, Fluo-8 NW; potency ranges A-D. The procedure: as §1, §2

Experiment [3] concerns the target T3, P2X7 receptor (Homo sapiens, UniProt Q99572).
T3 sequence (Q99572 1-595): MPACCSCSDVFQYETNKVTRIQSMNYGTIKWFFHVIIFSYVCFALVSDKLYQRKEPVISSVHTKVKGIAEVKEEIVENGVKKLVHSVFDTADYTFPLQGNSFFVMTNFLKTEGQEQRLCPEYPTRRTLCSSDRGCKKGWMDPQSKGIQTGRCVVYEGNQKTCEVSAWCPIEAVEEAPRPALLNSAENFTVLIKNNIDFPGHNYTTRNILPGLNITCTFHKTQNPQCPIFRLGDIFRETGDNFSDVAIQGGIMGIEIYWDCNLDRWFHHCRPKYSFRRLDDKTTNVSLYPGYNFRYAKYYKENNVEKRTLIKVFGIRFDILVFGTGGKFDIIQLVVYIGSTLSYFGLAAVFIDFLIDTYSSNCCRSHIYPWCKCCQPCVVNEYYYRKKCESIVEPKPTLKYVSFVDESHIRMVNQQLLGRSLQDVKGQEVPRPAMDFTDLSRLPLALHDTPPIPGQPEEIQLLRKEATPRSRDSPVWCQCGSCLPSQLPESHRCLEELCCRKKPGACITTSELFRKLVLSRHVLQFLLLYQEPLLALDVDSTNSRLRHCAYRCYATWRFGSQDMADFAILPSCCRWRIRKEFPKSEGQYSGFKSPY
Details: hP2X7 (IC50; nM); other: hP2X7; HEK-293 cells stably transfected with P2X7 receptor, Bz-ATP at EC80, Fluo-8 NW; potency. The settings on record: hP2X7; HEK-293 cells stably transfected with P2X7 receptor, Bz-ATP at EC80, Fluo-8 NW; potency ranges A-D. The procedure:
as §1, §2

Consider `COc1cccc(Cn2c(Cc3c(F)cccc3Cl)noc2=O)c1` [Example 57, 3-[(2-chloro-6-fluorophenyl)methyl]-4-[(3-methoxyphenyl)methyl]-4,5-dihydro-1,2,4-oxadiazol-5-one], for which the IC50 at P2X7 receptor [1], at P2X7 receptor [2] and on P2X7 receptor [3] was 1000 to 10000 nM throughout.
Turning to `CCCCn1c(Cc2c(F)cccc2Cl)noc1=O` [Example 177, 4-butyl-3-[(2-chloro-6-fluorophenyl)methyl]-4,5-dihydro-1,2,4-oxadiazol-5-one], the IC50 (as a rule, the concentration that inhibits the measured activity by half) was 1000 to 10000 nM at P2X7 receptor [1], greater than 10000 nM on P2X7 receptor [2] and 1000 to 10000 nM at P2X7 receptor [3].
`O=c1onc(C(O)c2cccc(C(F)(F)F)c2Cl)n1Cc1c(F)cccc1Cl` (stereo not drawn) [Example 135, 3-{[2-chloro-3-(trifluoromethyl)phenyl](hydroxy)methyl}-4-[(2-chloro-6-fluorophenyl)methyl]-4,5-dihydro-1,2,4-oxadiazol-5-one]: the IC50 is greater than 10000 nM on P2X7 receptor [1], greater than 10000 nM at P2X7 receptor [2] and 200 to 1000 nM at P2X7 receptor [3].
Take `O=c1onc(Cc2ccc(Cl)cc2Cl)n1Cc1ccc(F)cc1` [Example 74, 3-[(2,4-dichlorophenyl)methyl]-4-[(4-fluorophenyl)methyl]-4,5-dihydro-1,2,4-oxadiazol-5-one]: the IC50 on P2X7 receptor [1], on P2X7 receptor [2] and on P2X7 receptor [3] was 1000 to 10000 nM each time.
As for `O=c1onc(CN2CCOc3ccccc32)n1CC1CCC(F)(F)CC1` [Example 231, 4-[(4,4-difluorocyclohexyl)methyl]-3-(3,4-dihydro-2H-1,4-benzoxazin-4-ylmethyl)-4,5-dihydro-1,2,4-oxadiazol-5-one], the IC50 on P2X7 receptor [1], at P2X7 receptor [2] and at P2X7 receptor [3] was less than 200 nM throughout.
For `O=c1onc(CC2CCC(F)(F)CC2)n1Cc1ncco1` [Example 194, 3-[(4,4-difluorocyclohexyl)methyl]-4-[(1,3-oxazol-2-yl)methyl]-1,2,4-oxadiazol-5(4H)-one], the IC50 on P2X7 receptor [1] is 1000 to 10000 nM; on P2X7 receptor [2], greater than 10000 nM; on P2X7 receptor [3], 1000 to 10000 nM.
Take `CC(C)(c1c(F)cccc1Cl)c1noc(=O)n1Cc1ccc(F)cc1` [Example 77, 3-[2-(2-chloro-6-fluorophenyl)propan-2-yl]-4-[(4-fluorophenyl)methyl]-4,5-dihydro-1,2,4-oxadiazol-5-one]: the IC50 on P2X7 receptor [1], at P2X7 receptor [2] and on P2X7 receptor [3] was greater than 10000 nM each time.
Consider `O=c1onc(CCc2c(F)cccc2Cl)n1Cc1c(F)cccc1Cl` [Example 144, 4-(2-chloro-6-fluorobenzyl)-3-[2-(2-chloro-6-fluorophenyl)ethyl]-1,2,4-oxadiazol-5(4H)-one], for which the figures for the IC50 at P2X7 receptor [1], at P2X7 receptor [2] and at P2X7 receptor [3] were 200 to 1000 nM, 1000 to 10000 nM and 200 to 1000 nM, respectively.
With `O=c1onc(Cc2c(F)cccc2Cl)n1Cc1c(F)cccc1Cl` [Example 18, bis[(2-chloro-6-fluorophenyl)methyl]-4,5-dihydro-1,2,4-oxadiazol-5-one], the IC50 on P2X7 receptor [1], at P2X7 receptor [2] and at P2X7 receptor [3] was 1000 to 10000 nM in each case.
With `O=c1onc(Cc2c(F)cccc2Cl)n1Cc1ccccc1C(F)(F)F` [Example 23, 3-[(2-chloro-6-fluorophenyl)methyl]-4-{[2-(trifluoromethyl)phenyl]methyl}-4,5-dihydro-1,2,4-oxadiazol-5-one], the IC50 on P2X7 receptor [1] is 1000 to 10000 nM; on P2X7 receptor [2], greater than 10000 nM; on P2X7 receptor [3], 1000 to 10000 nM.
Regarding `Cc1nn(C)c(C)c1Cc1noc(=O)n1Cc1ccc(F)cc1` [Example 212, 4-[(4-fluorophenyl)methyl]-3-[(trimethyl-1H-pyrazol-4-yl)methyl]-4,5-dihydro-1,2,4-oxadiazol-5-one], the results for the IC50 on P2X7 receptor [1], on P2X7 receptor [2] and on P2X7 receptor [3] were greater than 10000 nM, greater than 10000 nM and 1000 to 10000 nM, respectively.
In the case of `O=c1onc(Cc2ccc(F)cc2)n1CC1CCCCC1` [Example 12, 4-(cyclohexylmethyl)-3-[(4-fluorophenyl)methyl]-4,5-dihydro-1,2,4-oxadiazol-5-one], the IC50 lay within 200 to 1000 nM on P2X7 receptor [1], 200 to 1000 nM on P2X7 receptor [2] and 1000 to 10000 nM on P2X7 receptor [3].
Regarding `O=c1onc(CC2CCC(F)(F)C2)n1Cc1c(F)cccc1Cl` (stereo not drawn) [Example 205, 4-[(2-chloro-6-fluorophenyl)methyl]-3-[(3,3-difluorocyclopentyl)methyl]-4,5-dihydro-1,2,4-oxadiazol-5-one], the IC50 on P2X7 receptor [1] was less than 200 nM; at P2X7 receptor [2] it was 200 to 1000 nM; on P2X7 receptor [3], less than 200 nM.
Consider `O=c1onc(Cc2c(F)cccc2Cl)n1Cc1ccncc1` [Example 43, 3-[(2-chloro-6-fluorophenyl)methyl]-4-(pyridin-4-ylmethyl)-4,5-dihydro-1,2,4-oxadiazol-5-one], for which the IC50 at P2X7 receptor [1], on P2X7 receptor [2] and at P2X7 receptor [3] was greater than 10000 nM in each case.
Regarding `O=c1onc(Cc2ccccc2F)n1Cc1c(F)cccc1Cl` [Example 19, 4-[(2-chloro-6-fluorophenyl)methyl]-3-[(2-fluorophenyl)methyl]-4,5-dihydro-1,2,4-oxadiazol-5-one], the IC50 is 1000 to 10000 nM on P2X7 receptor [1], greater than 10000 nM at P2X7 receptor [2] and 1000 to 10000 nM at P2X7 receptor [3].
As to `COc1ccc(Cc2noc(=O)n2CC2CCC(F)(F)CC2)cc1` [Example 154, 4-[(4,4-difluorocyclohexyl)methyl]-3-[(4-methoxyphenyl)methyl]-4,5-dihydro-1,2,4-oxadiazol-5-one], the IC50 on P2X7 receptor [1], on P2X7 receptor [2] and at P2X7 receptor [3] was 1000 to 10000 nM in each case.
Consider `O=c1onc(CN2CCCC(F)(F)C2)n1Cc1ccc(F)cc1` [Example 225, 3-[(3,3-difluoropiperidin-1-yl)methyl]-4-[(4-fluorophenyl)methyl]-4,5-dihydro-1,2,4-oxadiazol-5-one], for which the IC50 on P2X7 receptor [1] is 1000 to 10000 nM; at P2X7 receptor [2], greater than 10000 nM; at P2X7 receptor [3], greater than 10000 nM.

For the origin of these results see patent US11623919B2, “Heterocyclic P2X7 antagonists” (AXXAM S.P.A., priority 2017, dated 2023).
